28 molecules from ChEMBL document CHEMBL1221184, “Identifying off-target effects and hidden phenotypes of drugs in human cells” (Nat Chem Biol, 2006) can be followed below.

In one assay the test system is PC-3. In words: Antiproliferative activity against human PC3 cells at 10 uM after 120 hrs by MTT assay relative to DMSO. Format: functional. For orientation: Tetrazolium assays rely on reduction of a dye to a coloured formazan, in cell work by metabolically active cells.
As to `Cc1ccc(-c2cc(C(F)(F)F)nn2-c2ccc(S(N)(=O)=O)cc2)cc1` [CELECOXIB], the “fold change (FC)” value is recorded as 0.902. Same read-out and setting: then `CC[C@H](C)[C@@H](CO[C@@H](Cc1ccccc1)C(=O)N[C@@H](CCS(C)(=O)=O)C(=O)OC(C)C)NC[C@@H](N)CS`, with 0.719. On to `Fc1ccc([C@@H]2CCNC[C@H]2COc2ccc3c(c2)OCO3)cc1` [PAROXETINE], for which the “fold change (FC)” value was 0.328. In the case of `CC(C)(C)c1ccc(C(O)CCCN2CCC(C(O)(c3ccccc3)c3ccccc3)CC2)cc1` (stereo not drawn) [TERFENADINE], the “fold change (FC)” value is 0.212. Same read-out and setting: then `CCCCCCCCCCCCC/C=C/[C@H](O)[C@@H](CO)NC(C)=O` [ACETYL CERAMIDE], with 0.787. The same measure, in the same setting: then `CS(=O)(=O)c1ccc(C2=C(c3ccccc3)C(=O)OC2)cc1` [ROFECOXIB], with 1.08; and `Cc1ccc(NC(=O)c2ccc(CN3CCN(C)CC3)cc2)cc1Nc1nccc(-c2cccnc2)n1` [IMATINIB], with 0.5; and `Cc1onc(-c2ccccc2)c1-c1ccc(S(N)(=O)=O)cc1` [VALDECOXIB], with 1.048. As for `c1ccc([C@H]2CN3CCSC3=N2)cc1` [LEVAMISOLE], the “fold change (FC)” value amounted to 1.028.

Another assay deals with PC-3. Kind of assay: Antiproliferative activity against human PC3 cells at 2 uM after 120 hrs by MTT assay relative to DMSO. It is filed as functional.
For `CN1CCN(C2=Nc3cc(Cl)ccc3Nc3ccccc32)CC1` [CLOZAPINE], the “fold change (FC)” value turned out to be 0.977. Consider `CC1(C)CCC2=C(O1)c1ccccc1C(=O)C2=O` [LAPACHONE], for which the “fold change (FC)” value was found to be 0.243.

In the case of `CC(C)NCC(O)COc1cccc2ccccc12` (stereo not drawn) [PROPRANOLOL], the “fold change (FC)” value worked out at 0.986.

Consider `Cc1cc2c(s1)Nc1ccccc1N=C2N1CCN(C)CC1` [OLANZAPINE], for which the “fold change (FC)” value worked out at 1.059. Consider `O=S(=O)(NCCNC/C=C/c1ccc(Br)cc1)c1cccc2cnccc12`, for which the “fold change (FC)” value stood at 1.028. Consider `CC(C)(C)NCC(O)c1ccc(O)c(CO)c1` (stereo not drawn) [ALBUTEROL], for which the “fold change (FC)” value is 0.926. Same read-out and setting: then `CC(C)(C)NCC(O)c1cc(Cl)c(N)c(Cl)c1` (stereo not drawn) [CLENBUTEROL], with 0.963; and `O=C1Cc2cc(CCN3CCN(c4nsc5ccccc45)CC3)c(Cl)cc2N1` [ZIPRASIDONE], with 1.017; and `CC(C)NCC(O)c1ccc(O)c(O)c1` (stereo not drawn) [ISOPROTERENOL], with 0.955.

The test system of the next assay is PC-3. Kind of assay: Antiproliferative activity against human PC3 cells at 30 uM after 120 hrs by MTT assay relative to DMSO. It is filed as functional.
`CC(C)c1nc(N(C)S(C)(=O)=O)nc(-c2ccc(F)cc2)c1/C=C/[C@@H](O)C[C@@H](O)CC(=O)O` [ROSUVASTATIN]: the “fold change (FC)” value came to 0.491. On the same count and under the same terms, next, `CC[C@H](C)C(=O)O[C@H]1C[C@H](O)C=C2C=C[C@H](C)[C@H](CC[C@@H](O)C[C@@H](O)CC(=O)O)[C@H]21` [PRAVASTATIN]: 1.098. For `COCc1c(C(C)C)nc(C(C)C)c(/C=C/[C@@H](O)C[C@@H](O)CC(=O)O)c1-c1ccc(F)cc1` [CERIVASTATIN], the “fold change (FC)” value was found to be 0.254.

`CC(=O)N1CCN(c2ccc(OCC3COC(Cn4ccnc4)(c4ccc(Cl)cc4Cl)O3)cc2)CC1` (stereo not drawn) [KETOCONAZOLE]: the “fold change (FC)” value came out at 1.066. In the case of `CC(C)c1c(C(=O)Nc2ccccc2)c(-c2ccccc2)c(-c2ccc(F)cc2)n1CC[C@@H](O)C[C@@H](O)CC(=O)O` [ATORVASTATIN], the “fold change (FC)” value was determined as 0.264.

In the case of `CC[C@H](C)C(=O)O[C@H]1C[C@@H](C)C=C2C=C[C@H](C)[C@H](CC[C@@H]3C[C@@H](O)CC(=O)O3)[C@H]21` [LOVASTATIN], the “fold change (FC)” value was 0.25. Consider `CC[C@H](C)C(=O)O[C@H]1CCC=C2C=C[C@H](C)[C@H](CC[C@@H]3C[C@@H](O)CC(=O)O3)[C@H]21` [MEVASTATIN], for which the “fold change (FC)” value stood at 0.243. For `CC(C)n1c(/C=C/C(O)CC(O)CC(=O)O)c(-c2ccc(F)cc2)c2ccccc21` (stereo not drawn) [FLUVASTATIN], the “fold change (FC)” value turned out to be 0.255. Take `CCC(C)(C)C(=O)O[C@H]1C[C@@H](C)C=C2C=C[C@H](C)[C@H](CC[C@@H]3C[C@@H](O)CC(=O)O3)[C@H]21` [SIMVASTATIN]: the “fold change (FC)” value came out at 0.239. Consider `CCC1(c2ccc(N)cc2)CCC(=O)NC1=O` (stereo not drawn) [AMINOGLUTETHIMIDE], for which the “fold change (FC)” value is reported as 0.979.
